Measured values from US6897198B2, “Method of treatment with combinations of statin and aryl-substituted propanolamine derivatives” (Aventis Pharma Deutschland GmbH, priority 1998, dated 2005).

Legend:
[1] = biological target: T1, Na+-dependent bile acid transport system (Oryctolagus cuniculus, UniProt Q28727); experiment: Inhibition of Na+-dependent [3H]-taurocholate uptake in rabbit ileum cuticular layer membrane vesicles; assay type: biochemical; conditions: Table 1, 50 μM taurocholate, incubation normally 1 minute
T1 construct: Cuticular layer membrane vesicles were prepared from ileum cells by the so-called Mg^2+ precipitation method; from tissue; host or cells: terminal ileum of male New Zealand rabbits (brush-border / cuticular layer membrane vesicles)
T1 sequence (Q28727 1-347): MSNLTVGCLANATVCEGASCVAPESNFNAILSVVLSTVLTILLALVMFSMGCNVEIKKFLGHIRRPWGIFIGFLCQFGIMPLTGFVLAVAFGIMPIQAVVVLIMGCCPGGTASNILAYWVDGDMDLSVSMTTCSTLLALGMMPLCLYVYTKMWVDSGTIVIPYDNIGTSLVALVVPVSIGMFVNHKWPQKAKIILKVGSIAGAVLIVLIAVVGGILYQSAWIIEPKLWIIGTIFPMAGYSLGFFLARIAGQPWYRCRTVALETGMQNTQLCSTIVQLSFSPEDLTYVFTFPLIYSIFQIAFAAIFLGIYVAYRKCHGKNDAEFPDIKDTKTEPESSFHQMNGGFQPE
Protocol: The compounds according to the invention were tested in a biotest by determining the inhibition of [^3H]-taurocholate uptake in rabbit ileum cuticular layer membrane vesicles. The inhibitory test was carried out as follows:
1. Preparation of Rabbit Ileum Cuticular Layer Membrane Vesicles
Cuticular layer membrane vesicles were prepared from ileum cells by the so-called Mg^2+ precipitation method. Male New Zealand rabbits (body weight 2 to 2.5 kg) were sacrificed by intravenous injection of 0.5 ml T61®, an aqueous solution of 2.5 mg of tetracaine —HCl, 100 mg of embutramide and 25 mg of mebezonium iodide. The ileum was removed and washed with ice-cold physiological saline. The terminal 7/10th of the ileum (measured in the oral-rectal direction, i.e., the terminal ileum, which contains the active Na^+-dependent bile acid transport system) were used for preparing the cuticular layer membrane vesicles. The intestines were frozen in polymer bags at −80° C. under nitrogen. To prepare the membrane vesicles, the frozen intestines were defrosted in a water bath at 30° C. The mucosa was scraped off and suspended in 60 ml of ice-cold 12 mM TRIS/HCl buffer (pH 7.1)/300 mM mannitol, 5 mM EGTA/10 mg/l phenylmethylsulfonyl fluoride/1 mg/l soybean trypsin inhibitor (32 (U/mg)/0.5 mg/l bovine lung trypsin inhibitor (193 U/mg)/5 mg/l bacitracin. After the mixture had been diluted to 300 ml with ice-cold distilled water, it was homogenized in an Ultraturrax (rod 18, IKA Werk Staufen, Germany) for 3 minutes at 75% of maximum speed, with ice-cooling. After 3 ml of 1 M MgCl2 solution had been added (final concentration 10 mM), the mixture was left to stand at 0° C. for exactly 1 minute. The addition of Mg^2+ causes the cell membranes to aggregate and precipitate with the exception of the cuticular layer membranes. After centrifugation for 15 minutes at 3000×g (5000 rpm, SS-34 rotor), the precipitate was discarded, and the supernatant, which contains the cuticular layer membranes, was centrifuged for 30 minutes at 48,000×g (20,000 rpm, SS-34 rotor). The supernatant was discarded, and the precipitate was rehomogenized in 60 ml of 12 mM TRIS/HCl buffer (pH 7.1)/60 mM mannitol, 5 mM EGTA using a Potter Elvejhem homogenizer (Braun, Melsungen, 900 rpm, 10 strokes). After addition of 0.1 ml of 1 M MgCl2 solution and incubation for 15 minutes at 0° C., the mixture was again centrifuged for 15 minutes at 3000×g. The supernatant was subsequently centrifuged for a further 30 minutes at 48,000×g (20,000 rpm, SS-34 rotor). […]
The uptake of substrates into the above-described cuticular layer membrane vesicles was determined by means of the so-called membrane filtration technique. […]

[2] = test system: gallstone-sensitive mice; experiment: Test for gallstone formation (cholesterol gallstone formation, lithogenic diet); assay type: in vivo; conditions: male C57L mice, 100 mg/kg/d (0.1% in the feed), 13 weeks, lithogenic diet alone 5/15
Protocol: Test for Gallstone Formation • 1. Test Substance, Dose and Application • Example 9 of Table 1 (=A1) 100 mg/kg/d 0.1% in the feed • 2. Aim
In this test, the cholesterol gallstone formation in gallstone-sensitive mice was investigated. • 3. Materials and Methods • 3.1 Animals and Housing
The experimental animals used are male C57L mice (Jackson Laboratories) with an average body weight of 25-30 g at the beginning of the adaptation.
The animals were randomly divided into 4 groups (n=10, groups 2 and 3 n=15). Starting at the beginning of the treatment, the mice were either fed a standard rodent feed by Altromin (group 1), or a lithogenic diet by Altromin (groups 2-4); this diet was composed as follows: 15% butter, 1% cholesterol, 50% sugar, 20% casein, 0.5% cholic acid, 5% mineral mix, 2.5% vitamin mix, 2% corn oil, corn starch to 100%. The animals were weighed weekly, and the food consumption was determined by continuous weighings before and after, whereby the dose was calculated. • 3.2. Final Examination
After 11 and 13 weeks, respectively, the animals of each group were sacrificed and the gallbladders subsequently prepared. Gallstones in the gallbladder were then recorded. The gallbladder was dissected, the weight was determined, and the composition of the bile and the gallstones was analyzed.

Structure (SMILES)	Bio. Test (quotient of the IC50Na values of the reference substance taurochenodesoxycholate (TCDC) and the test substance) [1]	Frequency of gallstones (n/n) [2]
O=C(NCCCNc1ccccc1[C@@H](Nc1ccccn1)[C@H](c1ccccn1)[C@H](O)c1ccccc1)[C@H](O)[C@@H](O)[C@H](O)[C@H](O)CO [Example 2]	0.24	
CC(=O)OC[C@@H](OC(C)=O)[C@@H](OC(C)=O)[C@H](OC(C)=O)[C@@H](OC(C)=O)C(=O)NCCCCCCCCCCC(=O)Nc1ccccc1[C@@H](Nc1ccccn1)[C@H](c1ccccn1)[C@H](O)c1ccccc1 [Example 8]	0.83	
O=C(CCCCCCCCCCNC(=O)[C@H](O)[C@@H](O)[C@H](O)[C@H](O)CO)Nc1ccccc1[C@@H](Nc1ccccn1)[C@H](c1ccccn1)[C@H](O)c1ccccc1 [Example 9]	1.78	0/10
O=C(CCC(=O)Nc1ccccc1[C@@H](Nc1ccccn1)[C@H](c1ccccn1)[C@H](O)c1ccccc1)NC[C@H](O)[C@@H](O)[C@H](O)[C@H](O)CO [Example 15]	0.19	
